# In US20220362182A1, “METHODS FOR REVERSING HEPATIC STEATOSIS” (BRIGHTSEED, INC., priority 2020, published 2022):
# Entries after “also recorded” stand apart in the source; their conditions may differ. Where two headings read alike, the source gives them in different places.
# Assays:
# [1] = system: SPNS2 mRNA; assay: SPNS2 qPCR in T6PNE cells; type: cell-based, human
# Procedure: (§1) Quantitative PCR (Q-PCR) from in vitro cell culture experiments used total RNA purified using RNeasy Kits (Qiagen). For liver tissue samples, total RNA was isolated using Trizol (Invitrogen) and prepared for RNAseq (mouse liver DMSO and NCT, N=3). cDNA was amplified using 3 μg of total RNA using qScript cDNA SuperMix (Quanta BioSciences, Beverly, Mass., USA). QPCR analysis was performed using SYBR® Select Master Mix (Applied Biosystems) and ABI 7900HT (Applied Biosystems, Thermo Fisher Scientific). The Ct values of mRNA expression were then normalized to the 18 s rRNA values and are expressed as fold change over samples from mice fed normal chow for in vivo experiments or DMSO controls for cell culture experiments.
# [2] = system: CYP26A1 mRNA; assay: CYP26a1 mRNA in primary human hepatocytes; type: cell-based; conditions: high fat media, 5, 15, 40 µM, Day 4 to Day 10
# Procedure: Experiments with primary human hepatocytes were performed by CN-Bio (Cambridge, UK). Primary human hepatocytes (PHHs), human Kupffer cells (HKs) and human stellate cells (HSCs) were seeded onto CN-Bio's PhysioMimix LC12 MPS culture plates at 6×10^5 cells for PHHs and 6×10^4 cells for HKs and HSCs in 1.6 ml of CN-Bio's HEP-lean media with 5% FCS. Throughout the experiment the cells were maintained at a flow rate of 1 μl/s. After 24 h (Day 1) of seeding, the media was changed to HEP-lean media and the cells were incubated until day 4 to allow the cells to form microtissues. At day 4 post seeding, media was changed to HEP-fat media and treated with DMSO or NCT (5, 15, 40 μM). Media was replaced on days 6 and 8. Cells were harvested on day 10 for RNA extraction. Data are presented as mean ±SEM of three or more samples as indicated. Statistical significance was assessed using Student's t-test, ANOVA or R^2 coefficient of correlation.
# [3] = system: C57BL/6J DIO mice; assay: DIO mice injected IP for 14 days (hepatic steatosis); type: in vivo; conditions: for serum free fatty acids (FFA): after glucose challenge; for hepatic stored fat by Oil Red O staining: liver sections; for hepatic stored fat by Oil Red O staining / alkaline phosphatase (ALP) / epididymal fat pad weight / hepatic triglyceride content / liver weight / hepatic steatosis: 200 mg/kg; for alkaline phosphatase (ALP) / epididymal fat pad weight / hepatic triglyceride content / liver weight: vs DMSO; for hepatic steatosis: two weeks; for toxicity / general condition: mice, IP, up to the highest dose administered
# Procedure: Compounds were injected IP into diet-induced obese mice at a dose of 200 mg/kg bid for two weeks. At that point, mice were sacrificed and organs were harvested for analysis. To test the hypothesis that HNF4a controls hepatic fat storage, N-trans-caffeoyltyramine was administered to C57BL/6J DIO mice maintained on a 60% fat calorie diet. Based upon PK studies with N-trans-caffeoyltyramine, IP injection was chosen for two week for these proof of concept studies. […] It was observed that N-trans-caffeoyltyramine was stimulating lipophagy (FIG. 1A).
# Slides containing frozen liver tissue sections from mice were air dried for 10-20 min followed by rehydration in distilled water. Sections were immersed in absolute propylene glycol (Cat #151957, MP Biomedicals, LLC, USA) for 2 min followed by 0.5% in oil red O solution (Cat #K043, Poly Scientific R&D, USA) for 2 h. Slides were then differentiated in 85% propylene glycol solution, washed with dH2O for 2 h, and mounted using glycerin jelly mounting medium. All slides were scanned at a magnification of 20× using the Aperio Scanscope FL system (Aperio Technologies Inc., Vista, Calif., USA). The liver area stained with oil red O was measured using image J software as described, with some modifications. Oil red O-stained liver images were opened in Image J software. Using the Analyze>Set Scale command, the scale bar of the images was set to 200 um. RGB images were then converted into gray scale images using the Image>Type>RGB Stack command and were split into red, blue and green channels. Using the Image>Adjust>Threshold command, the threshold was manually set to highlight the oil red O-stained lipid droplets in the green channel. The same threshold was used for all the images in all treatment groups and the % oil red O-stained area was obtained using the Analyze→Measure tool command. Fold change was calculated by normalizing the values to images from mice fed normal chow.
# 12-week-old C57BL/6 J DIO male mice (cat #380050) were purchased from Jackson Laboratory and were fed with high fat diet containing 60 kcal % fat (Research Diets cat #D12492). Mice were maintained in a 12-h light/day cycle. After 2 weeks of acclimation, mice with similar body weights were randomly assigned to treatment or control groups.
# (§2) For dose response experiments, mice were injected intraperitoneally with 10% DMSO as vehicle control or 4 different doses of NCT (30, 60, 120 and 240 mg/kg of body weight) dissolved in 10% DMSO. Mice received 2 doses per day with a 5 h interval between injections for 3 days. To test the effect of NCT (Sundia MediTech Company, Ltd., Custom synthesis), 200 mg/kg was injected IP bid for 14 days. On day 15, mice received a final dose of NCT followed by IP injection with 3 g/kg dextrose. One h later, blood samples were collected and mice were euthanized using pentobarbital. Total mouse, liver and epididymal fat pad weights were measured. Dissected liver samples were washed in cold PBS, cut into small pieces and distributed for analyses. For RNA isolation and ELISA, liver samples were snap frozen using liquid nitrogen and stored at −80° C. For histomorphometry and immunofluorescence analysis, liver samples were fixed in 4% of cold PFA and processed for histology. All animal experiments were approved by the Institutional Animal Care and Use Committee (IACUC) of the Sanford Burnham Prebys Medical Discovery Institute in accordance with national regulations.
# The serum FFA level was measured using the Free Fatty Acid Quantification Colorimetric/Fluorometric Kit (Cat #K612, BioVision, USA). Fold change was calculated by normalizing to values from mice fed normal chow.
# Serum and liver TG level was measured using the Triglyceride calorimetric Assay Kit (Cat #10010303, Cayman Chemicals, USA). Fold change was calculated by normalizing the values from normal chow mice. […]
# [4] = system: SPNS2 mRNA; assay: SPNS2 qPCR in mouse pancreas; type: in vivo
# Procedure: as §1
# [5] = type: in vivo; conditions: mice, 30, 60, 120 and 240 mg/kg bid for 3 days, IP
# Procedure: as §2
# Having established that NCT reduces the level of stored fat in cells in vitro, it was of interest to determine its effect in vivo. […]
# [6] = listed as N-trans-caffeoyltyramine
# [7] = DIO mice, 200 mg/kg bid IP, 14 days
# [8] = DIO mice, 200 mg/kg bid IP, 14 days, listed as N-trans-caffeoyltyramine
structure (smiles),measurement,setting,value
"O=C(/C=C/c1ccc(O)c(O)c1)NCCc1ccc(O)cc1 [NCT, N-trans-caffeoyltyramine]",SPNS2 expression (mRNA),[1],induced SPNS2 expression
same,SPNS2 expression (mRNA),[1]; [6],induced the expression
same,CYP26a1 mRNA,[2],induced CYP26a1; also recorded: significantly induced
same,color of the liver,[3]; [7],shift in the color of the liver from yellow to red
same,other markers of liver function in the VetScan panel,[3]; [7],no change
same,serum free fatty acids (FFA),[3]; [7],induced an increase in free fatty acids
same,serum free fatty acids (FFA),[3]; [8],induced an increase in free fatty acids; also recorded: Serum FFA were increased
same,hepatic stored fat by Oil Red O staining,[3]; [7],decrease in stored fat by Oil Red O staining
same,hepatic stored fat by Oil Red O staining,[3]; [8],decrease in stored fat by Oil Red O staining; also recorded: significantly reduced the Oil Red O
same,alkaline phosphatase (ALP),[3]; [7],decreased ALP; also recorded: decrease in ALP
same,epididymal fat pad weight,[3]; [7],increase in epididymal fat pad mass; also recorded: increased weight
same,hepatic triglyceride content,[3]; [7],reduction in the hepatic triglyceride content
same,liver weight,[3]; [7],weighed less than those of the control mice
same,alkaline phosphatase (ALP),[3]; [8],ALP was decreased
same,epididymal fat pad weight,[3]; [8],increase in epididymal fat pad mass; also recorded: increase in epididymal fat pad weight
same,hepatic triglyceride content,[3]; [8],hepatic triglyceride content was decreased; also recorded: significantly reduced
same,liver weight,[3]; [8],weighed less than those of the control mice; also recorded: decreased liver weight
same,body weight gain,"[3]; DIO mice, 200 mg/kg bid IP, 14 days, vs control",gained weight to a similar degree
same,hepatic steatosis,"[3]; DIO mice, 200 mg/kg bid IP",reversed hepatic steatosis; also recorded: reversal of hepatic steatosis; also recorded: reduction of steatosis
same,hepatic steatosis,"[3]; DIO mice, 200 mg/kg bid IP, listed as N-trans-caffeoyltyramine",reverses hepatic steatosis
same,serum TG at week 1,"[3]; DIO mice, 200 mg/kg bid IP, week 1",increased
same,serum TG at week 2,"[3]; DIO mice, 200 mg/kg bid IP, week 2, end of the study",not at week 2
same,toxicity / general condition,[3],remained healthy and active; also recorded: unable to establish a maximum tolerated dose because of the lack of toxicity; also recorded: completely nontoxic at the highest dose administered
same,toxicity / general condition,[3]; [6],remained healthy and active
same,SPNS2 expression in mouse pancreas,[4],induced SPNS2 expression
same,tolerability,[5],well tolerated
